ChEMBL document CHEMBL1146736, “Simple aromatic compounds containing propenone moiety show considerable dual COX/5-LOX inhibitory activities” (Bioorg Med Chem Lett, 2004)

Key:
[1] = biological target: T1, Polyunsaturated fatty acid 5-lipoxygenase (Mus musculus, UniProt P48999); experiment: Inhibitory activity against murine […].
T1 sequence (P48999 whole entry): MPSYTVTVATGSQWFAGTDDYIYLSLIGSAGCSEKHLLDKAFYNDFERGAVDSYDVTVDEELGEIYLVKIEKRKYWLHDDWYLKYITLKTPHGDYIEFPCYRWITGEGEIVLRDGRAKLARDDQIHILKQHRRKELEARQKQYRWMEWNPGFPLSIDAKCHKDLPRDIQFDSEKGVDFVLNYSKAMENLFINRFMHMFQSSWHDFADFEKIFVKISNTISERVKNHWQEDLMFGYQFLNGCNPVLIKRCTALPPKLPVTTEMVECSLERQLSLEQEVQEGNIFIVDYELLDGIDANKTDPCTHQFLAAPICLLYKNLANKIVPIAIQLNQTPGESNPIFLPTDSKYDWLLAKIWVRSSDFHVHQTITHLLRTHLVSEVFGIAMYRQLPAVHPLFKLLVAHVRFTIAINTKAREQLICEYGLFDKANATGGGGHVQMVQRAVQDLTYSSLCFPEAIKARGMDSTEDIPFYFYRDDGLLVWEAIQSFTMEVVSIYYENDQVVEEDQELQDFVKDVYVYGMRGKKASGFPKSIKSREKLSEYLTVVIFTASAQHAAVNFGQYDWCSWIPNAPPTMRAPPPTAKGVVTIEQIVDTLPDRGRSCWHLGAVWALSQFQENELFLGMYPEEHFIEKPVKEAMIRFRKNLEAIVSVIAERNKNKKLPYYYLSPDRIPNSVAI

[2] = biological target: T2, Prostaglandin G/H synthase 1 (Mus musculus, UniProt P22437); experiment: Inhibitory activity against murine prostaglandin G/H synthase 1.
T2 sequence (P22437 whole entry): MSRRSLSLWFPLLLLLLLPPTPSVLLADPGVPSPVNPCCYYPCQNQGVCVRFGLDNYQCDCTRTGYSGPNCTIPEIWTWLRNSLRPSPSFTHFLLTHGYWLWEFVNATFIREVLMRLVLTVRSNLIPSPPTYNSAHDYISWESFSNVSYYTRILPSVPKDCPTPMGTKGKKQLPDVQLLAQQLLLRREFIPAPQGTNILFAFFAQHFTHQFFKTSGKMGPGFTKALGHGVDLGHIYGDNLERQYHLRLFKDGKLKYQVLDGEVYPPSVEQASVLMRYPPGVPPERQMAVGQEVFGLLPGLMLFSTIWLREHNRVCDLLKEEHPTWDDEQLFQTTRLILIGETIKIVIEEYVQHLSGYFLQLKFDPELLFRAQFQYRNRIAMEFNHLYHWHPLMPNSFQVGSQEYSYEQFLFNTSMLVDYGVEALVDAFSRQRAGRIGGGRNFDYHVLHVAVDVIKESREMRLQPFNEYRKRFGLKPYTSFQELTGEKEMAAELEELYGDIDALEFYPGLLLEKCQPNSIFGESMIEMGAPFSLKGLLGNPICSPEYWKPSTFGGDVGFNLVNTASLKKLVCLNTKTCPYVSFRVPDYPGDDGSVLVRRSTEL

[3] = biological target: T3, Prostaglandin G/H synthase 2 (Mus musculus, UniProt Q05769); experiment: Inhibitory activity against murine Prostaglandin G/H synthase 2.
T3 sequence (Q05769 whole entry): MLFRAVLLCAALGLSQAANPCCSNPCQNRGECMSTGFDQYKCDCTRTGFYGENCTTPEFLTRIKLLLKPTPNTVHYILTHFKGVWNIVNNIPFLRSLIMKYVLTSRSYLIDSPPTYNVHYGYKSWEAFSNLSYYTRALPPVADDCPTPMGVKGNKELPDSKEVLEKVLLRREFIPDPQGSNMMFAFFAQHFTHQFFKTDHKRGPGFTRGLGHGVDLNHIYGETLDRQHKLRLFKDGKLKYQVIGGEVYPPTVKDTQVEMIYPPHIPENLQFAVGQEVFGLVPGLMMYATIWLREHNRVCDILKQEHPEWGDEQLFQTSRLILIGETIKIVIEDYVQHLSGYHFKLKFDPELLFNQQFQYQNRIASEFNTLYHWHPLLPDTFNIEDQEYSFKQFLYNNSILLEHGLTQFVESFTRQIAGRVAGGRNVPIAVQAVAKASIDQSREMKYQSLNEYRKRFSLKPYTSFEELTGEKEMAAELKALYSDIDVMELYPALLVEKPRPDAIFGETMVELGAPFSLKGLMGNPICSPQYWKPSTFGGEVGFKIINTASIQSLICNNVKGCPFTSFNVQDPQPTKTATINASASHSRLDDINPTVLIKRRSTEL

[4] = biological target: T1, Polyunsaturated fatty acid 5-lipoxygenase; experiment: Inhibitory activity against […] in mice
[5] = biological target: T3, Prostaglandin G/H synthase 2; experiment: Inhibitory activity against cyclooxygenase-2 in micc
[6] = biological target: T2, Prostaglandin G/H synthase 1; experiment: Inhibitory activity against Prostaglandin G/H synthase 1 in mice

SMILES	IC50 [1] [µM]	IC50 [2] [µM]	IC50 [3] [µM]	IC50 [4] [µM]	IC50 [5] [µM]	IC50 [6] [µM]
O=C(/C=C/c1ccco1)c1cccs1	14	60.7	13.7	–	–	–
CS(=O)(=O)Nc1ccc([N+](=O)[O-])cc1OC1CCCCC1 [NS-398]	–	1.67	–	–	–	–
O=C(/C=C/c1ccco1)c1ccco1	12.8	80.7	29	–	–	–
O=C(/C=C/c1ccoc1)c1cccnc1	13.4	21	7.92	–	–	–
O=C(/C=C/c1ccccc1)c1ccccc1 [CHALCONE]	12.2	22.1	11.2	–	–	–
O=C(/C=C/c1ccsc1)c1cccnc1	–	13	18.4	10	–	–
O=C(/C=C/c1ccco1)c1ccccn1	13.5	23.6	7.44	–	–	–
O=C(/C=C/c1ccoc1)c1ccccn1	13.8	23.6	–	–	12	–

Results, then the compound that gave them:

IC50 [1] [µM]	IC50 [2] [µM]	IC50 [3] [µM]	IC50 [4] [µM]	IC50 [5] [µM]	IC50 [6] [µM]	SMILES
7.52	57.4	14.1	–	–	–	O=C(/C=C/c1ccco1)c1ccc(Cl)s1
0.37	65.3	1.89	–	–	–	O=C(/C=C/c1ccccn1)c1ccco1
0.032	–	–	–	–	–	CC1=C(C)C(=O)C(CCCCC#CCCCC#CCO)=C(C)C1=O [DOCEBENONE]
9.5	46.2	9.02	–	–	–	O=C(/C=C/c1cccs1)c1ccccc1
5.9	59.9	26.7	–	–	–	O=C(/C=C/c1ccsc1)c1cccs1
8.13	32.5	28.7	–	–	–	O=C(/C=C/c1ccccc1)c1ccccn1
7.6	13	5.22	–	–	–	O=C(/C=C/c1ccsc1)c1ccccn1
4.8	9.01	3.4	–	–	–	O=C(/C=C/c1cccs1)c1cccs1
6.51	40.1	23.4	–	–	–	Cc1ccsc1/C=C/C(=O)c1ccccn1
12	–	12	–	–	59.7	O=C(/C=C/c1ccco1)c1cccnc1
